What was measured:
CD4 T lymphocytes = assay: Proliferation of CD4 T lymphocytes in PBMC induced by IL2 (CFSE dilution, flow cytometry); format: cell-based, human; conditions: 20 μM dendrimer; PBMC with IL2; IL2 alone gives 70.2%
Experimental: Peripheral blood samples are obtained from adult healthy volunteers through the Etablissement Français du Sang (Toulouse, France). Peripheral Blood Mononuclear Cells (PBMC) are isolated by Ficoll density gradient (Amersham Biosciences AB).
PBMC are cultured at a final concentration of 1.5×10^6 cells/mL in complete RPMI 1640 medium, i.e. supplemented with 10% of heat inactivated fetal calf serum (FCS) (Invitrogen), 1 mM sodium pyruvate (Invitrogen), 2 mM L-glutamine, 100 U/mL penicillin and 100 μg/mL streptomycin (Cambrex Bioscience). Proliferation is activated by 400 U/mL of interleukin 2 (IL2) (Sanofi-Aventis) (a “growth factor” for lymphocytes). […]
Proliferation of CD4 T lymphocytes is evaluated by flow cytometry by analyzing the intracellular dilution of a fluorescent probe: the 5,6-carboxyfluorescein diacetate N-succinimidylester (CFSE). […] Then, CFSE dilution is analyzed by flow cytometry to measure the proliferation CD4 T cells. After gating for CD4 positive cells (mouse anti-human CD4-PE-Cy5 clone 13B8.2, Beckman-Coulter), CFSE fluorescence intensities are analyzed, and the percentage of CD4 T cells which have proliferated during the culture is taken into account. […] The overall differences are evaluated by analysis of variance test (ANOVA) with Sigma Stat software (Systat Software).

[1] = test system: mice immunized against myelin oligodendrocyte protein peptide 35-55; assay: Experimental Autoimmune Encephalomyelitis (EAE) mouse model; format: in vivo; conditions: 45 days post-immunization, control about 4
Text: Experimental Autoimmune Encephalomyelitis (EAE) is an inflammatory disease of the Central Nervous System (CNS) that shares clinical and immunopathological similarities with Multiple Sclerosis (MS). The model we have chosen is the classical model of active EAE induced by an immunization against myelin oligodendrocyte protein (MΦG) peptide 35-55 in mice. This leads to a chronic-progressive form of EAE resembling MS. Therefore, it is considered as a good model. Disease severity is scored on a clinical scale of 0 to 5 (0 being no detectable sign of EAE, 4 being tetraparalysis and 5 moribund or death). After MΦG-immunization, EAE scores for motor functions have been evaluated daily for 45 days for each animal. A preventive protocol (FIG. 17A) and a therapeutic protocol (FIG. 17B) have been tested. In both cases, mice are immunized with the MΦG peptide at Day 0 (first arrow of FIGS. 17A and 17B, corresponding to day 0 post-immunization). In the preventive protocol, intravenous administration of 10 mg/kg of dendrimer ABP started at Day 1 (FIG. 17A, second arrow, corresponding to 1 day post-immunization) and then every three days. In the therapeutic protocol, administration of ABP started once the disease is established at Day 18 (FIG. 17B, second arrow, corresponding to 18 days post-immunization), in the same conditions as the preventive protocol.

CN(/N=C/c1ccc(OP2(Oc3ccc(/C=N/N(C)P(=S)(Oc4ccc(CCN(CP(=O)(O)O)CP(=O)(O)O)cc4)Oc4ccc(CCN(CP(=O)(O)O)CP(=O)(O)O)cc4)cc3)=NP(Oc3ccc(/C=N/N(C)P(=S)(Oc4ccc(CCN(CP(=O)(O)O)CP(=O)(O)O)cc4)Oc4ccc(CCN(CP(=O)(O)O)CP(=O)(O)O)cc4)cc3)(Oc3ccc(/C=N/N(C)P(=S)(Oc4ccc(CCN(CP(=O)(O)O)CP(=O)(O)O)cc4)Oc4ccc(CCN(CP(=O)(O)O)CP(=O)(O)O)cc4)cc3)=NP(Oc3ccc(/C=N/N(C)P(=S)(Oc4ccc(CCN(CP(=O)(O)O)CP(=O)(O)O)cc4)Oc4ccc(CCN(CP(=O)(O)O)CP(=O)(O)O)cc4)cc3)(c3ccc(/C=N/N(C)P(=S)(Oc4ccc(CCN(CP(=O)(O)O)CP(=O)(O)O)cc4)Oc4ccc(CCN(CP(=O)(O)O)CP(=O)(O)O)cc4)cc3)=N2)cc1)P(=S)(Oc1ccc(CCN(CP(=O)(O)O)CP(=O)(O)O)cc1)Oc1ccc(CCN(CP(=O)(O)O)CP(=O)(O)O)cc1 (stereo not drawn) [Gc1]
CD4 T lymphocytes that have divided (CD4 T lymphocytes): 17.2% | disease severity clinical score (EAE, scale 0 to 5) ([1]; preventive protocol: 10 mg/kg intravenous from Day 1, every three days): less than 1 | disease severity clinical score (EAE, scale 0 to 5) ([1]; therapeutic protocol: 10 mg/kg intravenous from Day 18, every three days): about 1

Reference: patent US10106565B2 (priority 2008, dated 2018)
